For series [1], the system named is MCF10A. As to the kind of experiment: MTS viability assay, MCF10A normal breast epithelial cells. The format is cell-based, human. The settings on record: relative to celastrol. From the text: (§1) NR4A1-Ps selectively kill breast cancer cells. Since NR-V04 is very efficient in NR4A1 degradation, a negative control, NR-V04-NT, was synthesized.
(Formazan colour is commonly taken as a measure of viable cells.)

The nature of series [2]: Body weight and T cell development in normal mice. It counts as in vivo, mouse. The note with it: up to 3 weeks. From the text:
Thymus (FIG. 12A) and spleen (FIG. 12B) were collected for T cell quantitation by flow cytometry.

Series [3] concerns Py8119 cells. Nature of the series: Py8119 breast cancer model in C57/BL6 mice. It counts as in vivo, mouse. The protocol: FIG. 7A-FIG. 7D. Py8119 cells were injected into #4 mammary fatpad of 8-week female C57/BL6 mice, following with vehicle or NR-V04 treatment i.p. at 8 mg/kg weekly, starting at day 15 after tumor cell injection. Body weight (FIG. 7A), tumor growth (data not shown), and immune cell profiling by flow cytometry from spleen, tumor, and blood were shown (FIG. 7B-7D). CD45+CD3+CD8+ T cells (FIG. 7B), CD45+CD3+CD4+T (FIG. 7C), and ratios of CD4+Foxp3+Tregs to total T cells (T), to total CD4 T cells (CD4), to total CD4conv (non Treg CD4 T cells), or to CD8 T cells (FIG. 7D) were shown. * P<0.05; ** P<0.01.
FIG. 13A-FIG. 13C. Influence of NR-V04 treatment on TI-Tregs from (FIG. 13A) B16F10 melanoma, 1.8 mg/kg twice weekly for 3 weeks; (FIG. 13B) RENCA renal cancer model, 20 mg/kg once a week for 3 weeks; (FIG. 13C-13D) Py8119 breast cancer model, 8 mg/kg once a week for 3 weeks; with FIG. 13C showing the ratios between Treg/Tconv and FIG. 13D showing Treg/CD8+ T cell ratios.
Syngeneic models for antitumor activities. Syngeneic tumor models include breast cancer models: 1) E0771 as luminal breast cancer (C57BL/6 background) (36-38), 2) Py8119 (C57BL/6) (37, 39, 40) and 3) 4T1 (Balb/C) (41, 42) as triple negative breast cancer, and 4) MT2 as HER2-positive breast cancer (FVB/N) (43, 44), all of which develop metastasis upon orthotopic tumor injections; 5) MC-38 colon cancer model; 6) Renca renal carcinoma model; 7) B16 melanoma models. MC-38 is known to be responsive to ICIs and Renca is known to respond of Treg suppression in their tumor growth. B16 is only partially responsive to ICI treatment when anti-CTLA-4 and anti-PD-1 are combined. Careful titration of the minimal cell numbers provides consistent tumor growth and/or metastasis. For testing the efficacy of NR-V04 or other leads, tumor-bearing mice will be treated with either non-targeting NR-V04-NT or NR-V04, or other leads, starting 14 days after tumor cell injection when 3-5 mm in diameter tumor growth is typically seen in all models. The dose and frequency will be used based on the data from SA1.2. Based on work on BCL-XL PROTAC (22), weekly injection of the leads should be sufficient to maintain effective doses in various tissues.

For series [4], the system named is MCF7-Tam cells. As to the kind of experiment: MTS viability assay, MCF7-Tam cells. The format is cell-based. The note with it: relative to celastrol or NR-V04-NT.
Excerpt: as §1

For series [5], the target named is T1, NR4A1 (Mus musculus, UniProt P12813).
T1 construct: from tissue; host or cells: MC38 tumors from treated tumor-bearing mice (tumor lysates)
Nature of the series: NR4A1 degradation in MC38 tumors of treated mice (tumor lysate immunoblotting). The format is in vivo. The note with it: MC38-tumor bearing mice, 1.8 mg/kg twice weekly for 3 weeks. From the text:
Tumor lysates were used for immunoblotting.
Developing NR4A1-Ps. Due to the diverse function of NR4A1 in different cancer types, both agonistic and antagonistic ligands of NR4A1 are of interest in development (25). […] 4 cytosporone-B-based and 10 celastrol-based NR4A1-Ps using polyethylene glycol (PEG) linkers of various length have already been synthesized (FIG. 3 showing several examples).
A general note: A western blot detects proteins with antibodies after separation by electrophoresis.

Series [6] has as its system OT-1 CD8 T cells. As to the kind of experiment: OVA peptide-induced exhaustion of OT-1 CD8 T cells, flow cytometry. It counts as cell-based, mouse. The settings on record: 1 μM. The method, then:
Splenic CD8+ T cells were purified from OT-1 transgenic mice, treated with 10 ng/ml of OVA peptides for 5 days, following with NR-V04 treatment at 250 nM, 500 nM or 1 μM. CD39+, granzyme B+(P<0.0001), Lag3+ or PD-1+CD8 T cells (P<0.05) were quantitated using flow cytometry.
To induce antigen specific exhaustion of CD8^+ T cells, we purified CD8^+ T cells from OT-1 mice that expresses T cell receptor targeting OVA antigen. We treated these OT-1 CD8 T cells with OVA peptide for 5 days to induce their exhaustion, following with NR-V04 treatment with various concentrations.
In general terms: In flow cytometry, cells or beads pass a laser one at a time.

T1 sequence (P12813 whole entry): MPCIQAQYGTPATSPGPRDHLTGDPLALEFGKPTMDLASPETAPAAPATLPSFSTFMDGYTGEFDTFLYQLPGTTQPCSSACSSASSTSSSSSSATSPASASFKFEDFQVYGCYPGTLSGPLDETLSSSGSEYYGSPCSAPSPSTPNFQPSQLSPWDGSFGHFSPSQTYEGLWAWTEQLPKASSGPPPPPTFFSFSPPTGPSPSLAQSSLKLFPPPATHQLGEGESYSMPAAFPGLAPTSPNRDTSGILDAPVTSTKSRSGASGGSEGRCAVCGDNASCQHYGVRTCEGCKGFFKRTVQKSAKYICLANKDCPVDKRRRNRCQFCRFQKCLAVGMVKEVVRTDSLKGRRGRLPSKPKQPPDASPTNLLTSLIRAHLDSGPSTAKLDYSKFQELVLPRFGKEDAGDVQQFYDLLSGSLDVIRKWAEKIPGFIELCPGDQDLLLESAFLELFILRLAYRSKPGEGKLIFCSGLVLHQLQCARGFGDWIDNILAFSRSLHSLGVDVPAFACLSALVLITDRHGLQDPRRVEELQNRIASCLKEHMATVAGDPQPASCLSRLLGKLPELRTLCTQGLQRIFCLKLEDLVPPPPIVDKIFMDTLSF

Consider `CC1=C(O)C(=O)C=C2C1=CC=C1[C@@]2(C)CC[C@@]2(C)[C@@H]3C[C@](C)(C(=O)NCCOCCOCCOCCOCC(=O)N[C@H](C(=O)N4C[C@H](O)C[C@H]4C(=O)N[C@@H](C)c4ccc(-c5scnc5C)cc4)C(C)(C)C)CC[C@]3(C)CC[C@]12C` [NR-V04], for which the “toxicity to normal cells (% viability)” value in series [1] is “less toxic”. In addition, in series [2], the body weight result is on record as “did not influence the body weight”; the “development of T cells in thymus and spleen” value is listed as “did not change the normal development of T cells”. Further, in series [3] (Py8119, 8 mg/kg i.p. weekly), the “overall CD4+ and CD8+ T cells” value is “without influencing overall CD4+ and CD8+ T cells”; the “tumor-infiltrating Tregs versus effector T cell ratio” value is listed as “On-target decrease”. In addition, the tumor growth entry in series [3] (Py8119, 8 mg/kg i.p. weekly from day 15) is “Tumor growth difference was not observed”. In addition, the body weight entry in series [3] (Py8119, 8 mg/kg i.p. weekly, day 25 or 30) is listed as “no difference in body weight”. Besides, the “cell killing (% viability)” value in series [4] was “more robust killing relative to celastrol or NR-V04-NT”. The “degradation of NR4A1 within tumors” value in series [5] was “efficient degradation of target protein NR4A1”. In series [6], the “granzyme B+ active CD8 T cells” value is reported as “increase”, the “percent of Lag3+ exhausted CD8 T cells” value is “significantly reduced” and the “percent of PD-1+ exhausted CD8 T cells” value is reported as “significantly reduced”.
